Test in series [1]: not given
The source holds these as a separate data set.

The target in series [2] is histone deacetylase (HeLa nuclear extracts). Description: In vitro assay for inhibition of histone deacetylase with fluorescent-labelled substrate (Fluor de Lys). The note with it: HeLa nuclear extracts 60 μg/ml, 75 μM substrate. Format: biochemical. The text has this:
The in vitro assay for inhibition of histone deacetylase (see example C.1) measures the inhibition of HDAC enzymatic activity obtained with the compounds of formula (I).
The HDAC Fluorescent Activity Assay/Drug Discovery Kit of Biomol (cat. No: AK-500-0001) was used. The HDAC Fluorescent Activity Assay is based on the Fluor de Lys (Fluorogenic Histone deAcetylase Lysyl) substrate and developer combination. The Fluor de Lys substrate, comprises an acetylated lysine side chain. Deacetylation of the substrate sensitizes the substrate so that, in the second step, treatment with the Fluor de Lys developer produces a fluorophore.
HeLa nuclear extracts (supplier: Biomol) were incubated at 60 μg/ml with 75 μM of substrate. The Fluor de Lys substrate was added in a buffer containing 25 mM Tris, 137 mM NaCl, 2.7 mM KCl and 1 mM MgCl2.6H2O at pH 7.4. After 30 min, 1 volume of the developer was added. The fluorophore was excited with 355 nm light and the emitted light (450 nm) was be detected on a fluorometric plate reader.
For each experiment, controls (containing HeLa nuclear extract and buffer), a blank incubation (containing buffer but no HeLa nuclear extract) and samples (containing compound dissolved in DMSO and further diluted in buffer and HeLa nuclear extract) were run in parallel. In first instance, compounds were tested at a concentration of 10^−5M. […] All sample were tested 4 times. In each test the blank value was subtracted from both the control and the sample values. The control sample represented 100% of substrate deacetylation. For each sample the fluorescence was expressed as a percentage of the mean value of the controls. […] Herein the effects of test compounds are expressed as pIC50 (the negative log value of the IC50-value) (see Table F-2).

Series [3] deals with A2780 ovarian carcinoma cells. Kind of series: Antiproliferative activity on A2780 cells (MTT). Format: cell-based. The note with it: Homo sapiens, 96 h, four days of incubation, read-out: Cellular activity pIC50 C.2 (converted). Here is the method: Cellular activity of the compounds of formula (I) was determined on A2780 tumour cells using a colorimetric assay for cell toxicity or survival (Mosmann Tim, Journal of Immunological Methods 65: 55-63, 1983) (see example C.2).
All compounds tested were dissolved in DMSO and further dilutions were made in culture medium. Final DMSO concentrations never exceeded 0.1% (v/v) in cell proliferation assays. Controls contained A2780 cells and DMSO without compound and blanks contained DMSO but no cells. MTT was dissolved at 5 mg/ml in PBS. A glycine buffer comprised of 0.1 M glycine and 0.1 M NaCl buffered to pH 10.5 with NaOH (1N) was prepared (all reagents were from Merck).
The human A2780 ovarian carcinoma cells (a kind gift from Dr. T. C. Hamilton [Fox Chase Cancer Centre, Pennsylvania, USA]) were cultured in RPMI 1640 medium supplemented with 2 mM L-glutamine, 50 μg/ml gentamicin and 10% fetal calf serum. Cells were routinely kept as monolayer cultures at 37° C. in a humidified 5% CO2 atmosphere. Cells were passaged once a week using a trypsin/EDTA solution at a split ratio of 1:40. All media and supplements were obtained from Life Technologies. Cells were free of mycoplasma contamination as determined using the Gen-Probe Mycoplasma Tissue Culture kit (supplier: BioMérieux).
Cells were seeded in NUNC™ 96-well culture plates (Supplier: Life Technologies) and allowed to adhere to the plastic overnight. Densities used for plating were 1500 cells per well in a total volume of 200 μl medium. After cell adhesion to the plates, medium was changed and drugs and/or solvents were added to a final volume of 200 μl. Following four days of incubation, medium was replaced by 200 μl fresh medium and cell density and viability was assessed using an MTT-based assay. To each well, 25 μl MTT solution was added and the cells were further incubated for 2 hours at 37° C. The medium was then carefully aspirated and the blue MTT-formazan product was solubilized by addition of 25 μl glycine buffer followed by 100 μl of DMSO. […] Within an experiment, the results for each experimental condition are the mean of 3 replicate wells. For initial screening purposes, compounds were tested at a single fixed concentration of 10^−6 M. For active compounds, the experiments were repeated to establish full concentration-response curves. For each experiment, controls (containing no drug) and a blank incubation (containing no cells or drugs) were run in parallel. The blank value was subtracted from all control and sample values. For each sample, the mean value for cell growth (in absorbance units) was expressed as a percentage of the mean value for cell growth of the control. […] Herein the effects of test compounds are expressed as pIC50 (the negative log value of the IC50-value) (see Table F-2).

A short description of series [4]: Solubility/stability at pH 2.3 (chemiluminescent nitrogen detector). Type of series: physicochemical. The note with it: pH 2.3, aqueous buffer; read-out: Solubility C.3.b. pH = 2.3. How it is done:
The solubility of a compound measures the ability of a compound to stay in solution. In the first method, the ability of a compound to stay in aqueous solution upon dilution (see example C.3.a) is measured. DMSO-stock solutions are diluted with a single aqueous buffer solvent in different consecutive steps. In this method (C.3.a), mixtures are then scanned in the BD Gentest Solubility Scanner for the occurrence of precipitation. In the second method the solubility of a compound at different pH's can be measured with the use of a chemiluminescent nitrogen detector (see example C.3.b).
C.3.b. Solubility/Stability at pH 2.3
The solubility of a compound, at pH 2.3, can also be measured with the use of a chemiluminescent nitrogen detector (see Table F-2).

SMILES strings stand for the structures. In brackets after ≈: the same amount, converted by molar mass. Where a name gives a salt, the structure may show the parent alone. Read-outs that look alike come from different tables or passages of the source.

The values below come from patent US8664223B2, “Pyridine and pyrimidine derivatives as inhibitors of histone deacetylase” (Janssen Pharmaceutica N.V, priority 2006, dated 2014).

Broadly, the melting point is the temperature, or range, at which the solid turns liquid. In turn, `CC(=O)NC(/C=C/c1ccccc1)CN1CCN(c2ncc(C(=O)NO)cn2)CC1` (stereo not drawn) (as salt: trifluoroacetic acid salt) (hydrate or solvate) [Compound 1] came in with a melting point of 166 °C. The same measure, in the same setting: to `O=C(NO)c1cnc(N2CCN(CC(/C=C/c3ccccc3)N3C(=O)CCC3=O)CC2)nc1` (stereo not drawn) (as salt: trifluoroacetic acid salt) (hydrate or solvate) [Compound 3] belongs 148 °C; to `O=C(NO)c1cnc(N2CCN(CC(/C=C/c3ccccc3)Oc3ccc(F)cc3)CC2)nc1` (stereo not drawn) (as salt: trifluoroacetic acid salt) (hydrate or solvate) [Compound 4], 115 °C; to `NC(/C=C/c1ccccc1)CN1CCN(c2ncc(C(=O)NO)cn2)CC1` (stereo not drawn) (as salt: trifluoroacetic acid salt) [Compound 2], 124 °C. As to `COc1cc(N)c(Cl)cc1C(=O)NC1CCN(CCCOc2ccc(F)cc2)CC1OC` (stereo not drawn) [Cisapride], in series [1] (human, 15 min, 5 μM), the “% metabolism” value amounted to 45%.

Broadly, the solubility is the dissolved amount per volume that the medium holds. Take `CC(=O)NC(/C=C/c1ccccc1)CN1CCN(c2ncc(C(=O)NO)cn2)CC1` (stereo not drawn) [Compound 1]: the “Enzymatic activity pIC50 C.1” value in series [2] worked out at 8.2. The IC50 in series [3] was 398 nM. The solubility in series [4] is 2400 µg/mL (≈ 5.85 mM). In the same order, the values of `NC(/C=C/c1ccccc1)CN1CCN(c2ncc(C(=O)NO)cn2)CC1` (stereo not drawn) [Compound 2] are 8.2, 79.4 nM and 3100 µg/mL (≈ 8.41 mM). `O=C(NO)c1cnc(N2CCN(CC(/C=C/c3ccccc3)N3C(=O)CCC3=O)CC2)nc1` (stereo not drawn) [Compound 3]: the “Enzymatic activity pIC50 C.1” value in series [2] is listed as 7.5. The IC50 in series [3] is 7940 nM. In the same order, the values of `O=C(NO)c1cnc(N2CCN(CC(/C=C/c3ccccc3)Oc3ccc(F)cc3)CC2)nc1` (stereo not drawn) [Compound 4] are 7.3 and 1580 nM.

Turning to `CS(=O)(=O)NC(/C=C/c1ccc(F)cc1)CN1CCN(c2ccc(C(=O)NO)cn2)CC1` (stereo not drawn) [Compound 6], in series [2], the “Enzymatic activity pIC50 C.1” value amounted to 7.0. In series [3], the IC50 is 5010 nM. As for `CCCO` [propanol], the “% metabolism” value in series [1] (after 15 min incubation with active microsomes, compound 5 μM) stood at 25%.
